Laboratory results from US6770674B1, “Mollusc repellent” (priority 1998, dated 2004).
“And” between values parts separate entries of the source, which are not always exact repeats. Identical values can stand only once.

Experiments:
Rat = settings: oral; cited from earlier work
Human = settings: oral; cited from earlier work
juvenile Helix aspersa = assay: Attractancy/repellency test, sectorised filter technique of Bowen and Antoine; type: in vivo; set-up: key to Final Position: R: roof of the container; T: test sector; C: control sector; settings: for % Sector Eaten Control / % Sector Eaten Test: overnight; for repellency to snails (summary in words): arena trials, Helix aspersa
Experimental: One sector of the filter paper was used as the control and this was moistened with distilled water (1 ml). The other half was moistened with the test compound. […] The paper containing the copper oxalate was moistened with water after the addition of the chemical.
Filter sectors were placed on the lid of a plastic tub. The tub was inverted and was used to make a closed test arena. A small gap of 2 mm was left between the two filter sectors so as to prevent mixing of the test paper with the control. One juvenile Helix aspersa was introduced to the control sector and was allowed to remain in the arena overnight.
Attractancy/repellency was detected by dusting the filter paper with charcoal to reveal the slug trails. The results were quantified by placing a transparent grid over the test sectors and measuring the area covered by snail trails. Any phagostimulatory effect of the test compound was indicated by the consumption of the treated paper.

[1] = test system: slug, Deroceras reticulatum; assay: Protection of coated seeds fed to slugs (Example 2); type: in vivo; settings: for % Seeds damaged Broad beans After 7 days: coated broad beans; for % Seeds damaged Pea seeds After 5 days / % Seeds damaged Pea seeds After 7 days: coated pea seeds; for % Seeds damaged Wheat seeds After 5 days / % Seeds damaged Wheat seeds After 7 days: coated wheat seeds
Description: In the following experiment, various seeds were coated with copper oxalate and ferric potassium oxalate, respectively and fed to the slug, Deroceras reticulatum. The damage to these seeds was compared to damage to control seeds, which were left untreated.

[2] = test system: slug, Deroceras reticulatum; assay: Protection of wheat and pea seeds compared to BAYSOL and […] (Example 3); type: in vivo
Experimental: In the following experiment, the efficacy of copper oxalate for the protection of seeds was tested and compared to BAYSOL® and […]®. Seeds were coated with an aqueous suspension of copper oxalate, dried and fed to the slug, Deroceras reticulatum.

snail, Cernuella virgata = assay: Repellency of copper oxalate in a PVA coating (paint) composition on paper towel (Example 4); type: in vivo
Description: In the following experiment, the repellency of copper oxalate was investigated when incorporated in a paint composition. In this example, the carrier used was a common aqueous PVA solution sold in Australia under the brand name of Bond Crete.
Thirty-three 1 liter containers were used each with 3 layers of paper towel covering the bottom of the container. Half of the uppermost surface of each of the paper towels was coated with a solution made from 1 part copper oxalate: 10 parts water: 1 part PVA emulsion. This coating was applied at a rate of about 2 ml per 100 cm2 and allowed to dry. The towel was then moistened with approximately 20 ml of water. One snail, Cernuella virgata, was placed in the centre of the paper towels at the border of the coated and the uncoated half in each container. […] The snails consumed some of the untreated paper. […] After 7 days, the number of snails on the treated and untreated sections of the paper towel were counted, together with the number on the sides and lid of the container.

[3] = after 7 days, 33 containers with one snail each, same coating

Copper acetate
LD50 (Rat) (Rat): 595 mg/kg

[Cl-].[Cu+2].[Cu+2].[OH-].[OH-].[OH-] [Copper oxychloride]
LD50 (Rat) (Rat): 700 mg/kg

[Cu+2].[OH-].[OH-] [Copper hydroxide]
LD50 (Human) (Human): 200 mg/kg

O=C([O-])C(=O)[O-].[Cu+2] [Copper oxalate, copper oxalate]
% Sector Eaten Control (juvenile Helix aspersa; 1.61 mg/cm2, control sector of same arena): 4%
Final Position (juvenile Helix aspersa; 1.61 mg/cm2, overnight): R
% Sector Eaten Test (juvenile Helix aspersa; 1.61 mg/cm2, test sector): 0%
% Covered Control (juvenile Helix aspersa; 1.61 mg/cm2, trail cover of control sector of same arena): 88%
% Covered Test (juvenile Helix aspersa; 1.61 mg/cm2, trail cover of test sector): 4.4%
% Sector Eaten Control (juvenile Helix aspersa; 2.11 mg/cm2, control sector of same arena): 5%
Final Position (juvenile Helix aspersa; 2.11 mg/cm2, overnight): R
% Sector Eaten Test (juvenile Helix aspersa; 2.11 mg/cm2, test sector): 0%
% Covered Control (juvenile Helix aspersa; 2.11 mg/cm2, trail cover of control sector of same arena): 71.1%
% Covered Test (juvenile Helix aspersa; 2.11 mg/cm2, trail cover of test sector): 0%
% Sector Eaten Control (juvenile Helix aspersa; 2.43 mg/cm2, control sector of same arena): 2%
Final Position (juvenile Helix aspersa; 2.43 mg/cm2, overnight): R
% Sector Eaten Test (juvenile Helix aspersa; 2.43 mg/cm2, test sector): 0%
% Covered Control (juvenile Helix aspersa; 2.43 mg/cm2, trail cover of control sector of same arena): 68.9%
% Covered Test (juvenile Helix aspersa; 2.43 mg/cm2, trail cover of test sector): 0%
% Sector Eaten Control (juvenile Helix aspersa; 2.47 mg/cm2, control sector of same arena): 5%
Final Position (juvenile Helix aspersa; 2.47 mg/cm2, overnight): R
% Sector Eaten Test (juvenile Helix aspersa; 2.47 mg/cm2, test sector): 0%
% Covered Control (juvenile Helix aspersa; 2.47 mg/cm2, trail cover of control sector of same arena): 86.7%
% Covered Test (juvenile Helix aspersa; 2.47 mg/cm2, trail cover of test sector): 0%
% Sector Eaten Control (juvenile Helix aspersa; 3.19 mg/cm2, control sector of same arena): 2%
Final Position (juvenile Helix aspersa; 3.19 mg/cm2, overnight): C
% Sector Eaten Test (juvenile Helix aspersa; 3.19 mg/cm2, test sector): 0%
% Covered Control (juvenile Helix aspersa; 3.19 mg/cm2, trail cover of control sector of same arena): 88%
% Covered Test (juvenile Helix aspersa; 3.19 mg/cm2, trail cover of test sector): 0%
% Sector Eaten Control (juvenile Helix aspersa; 3.46 mg/cm2, control sector of same arena): 1%
Final Position (juvenile Helix aspersa; 3.46 mg/cm2, overnight): R
% Sector Eaten Test (juvenile Helix aspersa; 3.46 mg/cm2, test sector): 0%
% Covered Control (juvenile Helix aspersa; 3.46 mg/cm2, trail cover of control sector of same arena): 66.7%
% Covered Test (juvenile Helix aspersa; 3.46 mg/cm2, trail cover of test sector): 4.4%
repellency to snails (summary in words) (juvenile Helix aspersa): strongly repelled
% Seeds damaged Broad beans After 7 days [1]: 5%
% Seeds damaged Pea seeds After 5 days [1]: 7%
% Seeds damaged Pea seeds After 7 days [1]: 7%
% Seeds damaged Wheat seeds After 5 days [1]: 0%
% Seeds damaged Wheat seeds After 7 days [1]: 2%
slug repellency for seeds (summary in words) ([1]; wheat and pea seeds): very effective slug repellent
% Seeds damaged Pea seeds After 7 days ([2]; pea seeds, 7 days): 8%
% Seeds damaged Wheat seeds After 9 days ([2]; wheat seeds, 9 days): 10%
repellency in a coating composition (summary in words) (snail, Cernuella virgata; PVA coating composition): functions effectively as a mollusc repellent
No. of snails in area: On lid of container (snail, Cernuella virgata; after 7 days, 33 containers with one snail each, coating 1 part copper oxalate: 10 parts water: 1 part PVA emulsion): 1
No. of snails in area: On Treated half of paper (snail, Cernuella virgata; [3]): 8
No. of snails in area: On side of container (snail, Cernuella virgata; [3]): 1
No. of snails in area: On untreated half of paper (snail, Cernuella virgata; [3]): 23
consumption of the treated paper (snail, Cernuella virgata; coated half of paper towel, 7 days): No consumption

O=C([O-])C(=O)[O-].O=C([O-])C(=O)[O-].O=C([O-])C(=O)[O-].[Fe+3].[K+].[K+].[K+] [Ferric potassium oxalate, ferric potassium oxalate]
% Seeds damaged Broad beans After 7 days [1]: 0%
% Seeds damaged Pea seeds After 5 days [1]: 15%
% Seeds damaged Pea seeds After 7 days [1]: 17%
% Seeds damaged Wheat seeds After 5 days [1]: 3%
% Seeds damaged Wheat seeds After 7 days [1]: 20%

cetyl tertiary ammonium bromide [CeTAB, reference compound]
% Sector Eaten Control (juvenile Helix aspersa; 0.2 mg/cm2, control sector of same arena): 4% and 1% and 2%
Final Position (juvenile Helix aspersa; 0.2 mg/cm2, overnight): R
% Sector Eaten Test (juvenile Helix aspersa; 0.2 mg/cm2, test sector): 0%
% Covered Control (juvenile Helix aspersa; 0.2 mg/cm2, trail cover of control sector of same arena): 77.8% and 75.6% and 86.7%
% Sector Eaten Control (juvenile Helix aspersa; 2.0 mg/cm2, control sector of same arena): 4% and 5% and 3%
Final Position (juvenile Helix aspersa; 2.0 mg/cm2, overnight): R
% Sector Eaten Test (juvenile Helix aspersa; 2.0 mg/cm2, test sector): 0%
% Covered Control (juvenile Helix aspersa; 2.0 mg/cm2, trail cover of control sector of same arena): 62.2% and 66.6% and 71.1%
% Covered Test (juvenile Helix aspersa; 2.0 mg/cm2, trail cover of test sector): 0%
repellency to snails (summary in words) (juvenile Helix aspersa): act as a repellent
